Reference: patent US20090246787A1, “METHOD AND APPARATUS FOR DETERMINING CHEMOSENSITIVITY” (SYSMEX CORPORATION, priority 2008, published 2009)
Where two headings read alike, the source gives them in different places.

Legend:
HS 578T cells = assay: MTT living-cell assay, doxorubicin IC50; type: cell-based; settings: Homo sapiens, 72 h, cultured 3 days with doxorubicin, MTT method, read-out: IC50 class (chemosensitivity estimated by IC50)
Description: (§1) Human breast cancer cell lines, that is, HS 578T cells (ATCC HTB-126R), MDA-MB-435s cells (ATCC HTB-129), BT20 cells (ATCC HTB-19), CAMA-1 cells (ATCC HTB-21), T47D cells (ATCC HTB-133), MDA-MB-361 cells (ATCC HTB-27), UACC893 cells (ATCC CRL-1902) and BT474 cells (ATCC HTB-20) were purchased from American Type Culture Collection (ATCC) and cultured under culture conditions recommended by ATCC, as follow.
HS 578T cells were cultured in 5 vol % CO2 at 37° C., in a Dulbecco's modified Eagle medium containing 4 mM of L-glutamine, 10% by mass of fetal bovine serum and 0.01 mg/L of bovine insulin, with glucose at a final concentration of 4.5 g/L and sodium bicarbonate at a final concentration of 1.5/L. […]
(§2) The number of living cells in each of the cultures thus obtained was determined by an MTT method of using 3-(4,5-dimethylthiazol-2-yl)-2,5-diphenyl-2H-tetrazolium bromide. The number of living cells to be inoculated was established for each type of cell so as to enable the influence of the drug to be evaluated in the measurement range where the primary correlation between the number of cells in the serial dilution to be inoculated and the determined number of the living cells was kept high.
(§3) Thereafter, the number of living cells in each of the cultures thus obtained was measured by the MTT method of using 3-(4,5-dimethylthiazol-2-yl)-2,5-diphenyl-2H-tetrazolium bromide. […]

MDA-MB-435S cells = assay: MTT living-cell assay, doxorubicin IC50; type: cell-based; settings: Homo sapiens, 72 h, cultured 3 days with doxorubicin, MTT method, read-out: IC50 class (chemosensitivity estimated by IC50)
BT20 cells = assay: MTT living-cell assay, doxorubicin IC50; type: cell-based; settings: Homo sapiens, BT-20, 72 h, cultured 3 days with doxorubicin, MTT method, read-out: IC50 class (chemosensitivity estimated by IC50)
Description: as §1
BT-20 cells were cultured in 5 vol % CO2 at 37° C., in an Eagle minimum essential medium containing Earle's BSS, 2 mM of L-glutamine, 1.0 mM of sodium pyruvate, 0.1 mM of nonessential amino acids, 1.5 g/L of sodium bicarbonate and 10% by mass of fetal bovine serum. […]
as §2, §3

CAMA-1 cells = assay: MTT living-cell assay, doxorubicin IC50; type: cell-based; settings: Homo sapiens, 72 h, cultured 3 days with doxorubicin, MTT method, read-out: IC50 class (chemosensitivity estimated by IC50)
Description: CAMA-1 cells were cultured in 5 vol % CO2 at 37° C., in an Eagle minimum essential medium containing Earle's BSS, 2 mM of L-glutamine, 1.0 mM of sodium pyruvate, 0.1 mM of nonessential amino acids, 1.5 g/L of sodium bicarbonate and 10% by mass of fetal bovine serum.
(§4) Each of the breast cancer cell lines, that is, HS 578T cells, MDA-MB-435S cells, BT20 cells, CAMA-1 cells, T47D cells, MDA-MB-361 cells, UACC893 cells and BT474 cells, was diluted stepwise to produce 7 serial cell dilutions.
as §2
Thereafter, the number of living cells in each of the cultures thus obtained was measured by the MTT method of using 3-(4,5-dimethylthiazol-2-yl)-2,5-diphenyl-2H-tetrazolium bromide. This measurement was conducted 4 times. […]

T47D cells = assay: MTT living-cell assay, doxorubicin IC50; type: cell-based; settings: Homo sapiens, 72 h, cultured 3 days with doxorubicin, MTT method, read-out: IC50 class (chemosensitivity estimated by IC50)
Description: as §1
T-47D cells were cultured in 5 vol % CO2 at 37° C., in an RPMI 1640 medium containing 2 mM of L-glutamine, 1.0 mM of HEPES, 1.0 mM of sodium pyruvate, 4.5 g/L of glucose, 1.5 g/L of sodium bicarbonate, 10% by mass of fetal bovine serum and 0.2 unit/mL of bovine insulin. […]
as §2, §3

MDA-MB-361 cells = assay: MTT living-cell assay, doxorubicin IC50; type: cell-based; settings: Homo sapiens, 72 h, cultured 3 days with doxorubicin, MTT method, read-out: IC50 class (chemosensitivity estimated by IC50)
UACC893 cells = assay: MTT living-cell assay, doxorubicin IC50; type: cell-based; settings: Homo sapiens, UACC-893, 72 h, cultured 3 days with doxorubicin, MTT method, read-out: IC50 class (chemosensitivity estimated by IC50)
BT474 cells = assay: MTT living-cell assay, doxorubicin IC50; type: cell-based; settings: Homo sapiens, BT-474, 72 h, cultured 3 days with doxorubicin, MTT method, read-out: IC50 class (chemosensitivity estimated by IC50)
Description: BT-474 cells were cultured in 5 vol % CO2 at 37° C., in a Dulbecco's modified medium containing 10% by mass of fetal bovine serum.
as §4, §2
Thereafter, the number of living cells in each of the cultures thus obtained was measured by the MTT method of using 3-(4,5-dimethylthiazol-2-yl)-2,5-diphenyl-2H-tetrazolium bromide. This measurement was conducted 4 times.
On the basis of the determined number of living cells, the concentration of doxorubicin (IC50) at which the ratio of the number of living cells in the culture not treated with doxorubicin to the number of living cells in the culture treated with doxorubicin became 50% was determined.

CDK1 [1] = settings: 100 nM doxorubicin, 24 hours
CDK1 [2] = settings: 100 nM doxorubicin, 24 hours; remark: listed apart in the source
[3] = used generally in chemotherapy; cited from earlier work

## COc1cccc2c1C(=O)c1c(O)c3c(c(O)c1C2=O)C[C@@](O)(C(=O)CO)C[C@@H]3O[C@H]1C[C@H](N)[C@H](O)[C@H](C)O1 [doxorubicin]
HS 578T cells
  IC50: < 0.2 µM
MDA-MB-435S cells
  IC50: < 0.2 µM
BT20 cells
  IC50: < 0.2 µM
CAMA-1 cells
  IC50: < 0.2 µM
T47D cells
  IC50: > 0.2 µM
MDA-MB-361 cells
  IC50: > 0.2 µM
UACC893 cells
  IC50: > 0.2 µM
BT474 cells
  IC50: > 0.2 µM
CDK1 [1]; BT20 cells
  difference of CDK1 activity level (not treated − treated with doxorubicin): great difference
  ratio of CDK1 activity level (treated with doxorubicin / not treated): low
CDK1 [1]; BT474 cells
  difference of CDK1 activity level (not treated − treated with doxorubicin): a little difference, or a minus difference
  ratio of CDK1 activity level (treated with doxorubicin / not treated): high
CDK1 [1]; CAMA-1 cells
  difference of CDK1 activity level (not treated − treated with doxorubicin): great difference
  ratio of CDK1 activity level (treated with doxorubicin / not treated): low
CDK1 [1]; HS 578T cells
  difference of CDK1 activity level (not treated − treated with doxorubicin): great difference
  ratio of CDK1 activity level (treated with doxorubicin / not treated): low
CDK1 [1]; MDA-MB-361 cells
  difference of CDK1 activity level (not treated − treated with doxorubicin): a little difference, or a minus difference
  ratio of CDK1 activity level (treated with doxorubicin / not treated): high
CDK1 [1]; MDA-MB-435S cells
  difference of CDK1 activity level (not treated − treated with doxorubicin): great difference
  ratio of CDK1 activity level (treated with doxorubicin / not treated): low
CDK1 [1]; T47D cells
  difference of CDK1 activity level (not treated − treated with doxorubicin): a little difference, or a minus difference
  ratio of CDK1 activity level (treated with doxorubicin / not treated): high
CDK1 [1]; UACC893 cells
  difference of CDK1 activity level (not treated − treated with doxorubicin): a little difference, or a minus difference
  ratio of CDK1 activity level (treated with doxorubicin / not treated): high
CDK1 [2]; BT20 cells
  difference of CDK1 specific activity (not treated − treated with doxorubicin): high
  ratio of CDK1 specific activity (treated with doxorubicin / not treated): low
CDK1 [2]; BT474 cells
  difference of CDK1 specific activity (not treated − treated with doxorubicin): a little difference, or a minus difference
  ratio of CDK1 specific activity (treated with doxorubicin / not treated): high
CDK1 [2]; CAMA-1 cells
  difference of CDK1 specific activity (not treated − treated with doxorubicin): high
  ratio of CDK1 specific activity (treated with doxorubicin / not treated): low
CDK1 [2]; HS 578T cells
  difference of CDK1 specific activity (not treated − treated with doxorubicin): high
  ratio of CDK1 specific activity (treated with doxorubicin / not treated): low
CDK1 [2]; MDA-MB-361 cells
  difference of CDK1 specific activity (not treated − treated with doxorubicin): a little difference, or a minus difference
  ratio of CDK1 specific activity (treated with doxorubicin / not treated): high
CDK1 [2]; MDA-MB-435S cells
  difference of CDK1 specific activity (not treated − treated with doxorubicin): high
  ratio of CDK1 specific activity (treated with doxorubicin / not treated): low
CDK1 [2]; T47D cells
  difference of CDK1 specific activity (not treated − treated with doxorubicin): a little difference, or a minus difference
  ratio of CDK1 specific activity (treated with doxorubicin / not treated): high
CDK1 [2]; UACC893 cells
  difference of CDK1 specific activity (not treated − treated with doxorubicin): a little difference, or a minus difference
  ratio of CDK1 specific activity (treated with doxorubicin / not treated): high
[3]
  effective blood concentration: about 200 nM
